# Experimental data taken from US20260048047A1, “SMALL-MOLECULE ACTIVATORS OF MYCOBACTERIUM TUBERCULOSIS ADENYLYL CYCLASE” (priority 2022, published 2026).
# System: M. tuberculosis
# Assay: Extracellular activity against M. tuberculosis in cholesterol media (Alamar Blue reduction assay)
# Type: cell-based, Mycobacterium tuberculosis
# Settings: Mycobacterium tuberculosis, 240 h, 7H12-Cholesterol media, 10 days; read-out: Cholesterol broth: alamar blue--EC50
row,Structure (SMILES),EC50
1,"Cc1nonc1CC(=O)N1CCC(c2nc(C3CCC4(CC3)OCCO4)no2)CC1 [Compound 67, 1-(4-(3-(1,4-dioxaspiro[4.5]decan-8-yl)-1,2,4-oxadiazol-5-yl)piperidin-1-yl)-2-(4-methyl-1,2,5-oxadiazol-3-yl)ethan-1-one]",> 10000 nM
2,"Cc1nocc1CC(=O)N1CCC(c2nc(-c3ccc(Cl)c(Cl)c3)no2)CC1 [Compound 57, 1-(4-(3-(3,4-dichlorophenyl)-1,2,4-oxadiazol-5-yl)piperidin-1-yl)-2-(3-methylisoxazol-4-yl)ethan-1-one]",691 nM
3,"Cn1ncnc1CC(=O)N1C[C@H]2C[C@@H](C1)[C@H]2c1nc(-c2ccc(Cl)c(Cl)c2)no1 [Compound 218, 1-((1R,5S,6s)-6-(3-(3,4-dichlorophenyl)-1,2,4-oxadiazol-5-yl)-3-azabicyclo[3.1.1]heptan-3-yl)-2-(1-methyl-1H-1,2,4-triazol-5-yl)ethan-1-one]",> 10000 nM
4,"Cc1nonc1CC(=O)N1CCC(c2noc(C34CC(F)(C3)C4)n2)CC1 [Compound 116, 1-(4-(5-(3-fluorobicyclo[1.1.1]pentan-1-yl)-1,2,4-oxadiazol-3-yl)piperidin-1-yl)-2-(4-methyl-1,2,5-oxadiazol-3-yl)ethan-1-one]",9230 nM
5,"Cn1ncnc1CC(=O)N1CCC(c2nc(-c3ccc(Cl)c(OC(F)(F)F)c3)no2)CC1 [Compound 169, 1-(4-(3-(4-chloro-3-(trifluoromethoxy)phenyl)-1,2,4-oxadiazol-5-yl)piperidin-1-yl)-2-(1-methyl-1H-1,2,4-triazol-5-yl)ethan-1-one]",330 nM
6,"Cc1nonc1CC(=O)N1CC2CC(C1)C2c1nc(-c2ccc(F)c(F)c2)no1 (stereo not shown) [Compound 214, 1-(6-(3-(3,4-difluorophenyl)-1,2,4-oxadiazol-5-yl)-3-azabicyclo[3.1.1]heptan-3-yl)-2-(4-methyl-1,2,5-oxadiazol-3-yl)ethan-1-one]",5050 nM
7,"CC(C)c1noc(CC(=O)N2CCC(c3nc(-c4ccc(F)cc4)no3)CC2)n1 [Compound 6, 1-(4-(3-(4-fluorophenyl)-1,2,4-oxadiazol-5-yl)piperidin-1-yl)-2-(3-isopropyl-1,2,4-oxadiazol-5-yl)ethan-1-one]",2980 nM
8,"Cn1ncnc1CC(=O)N1CCC(n2nnc(-c3ccc(Cl)c(F)c3)n2)CC1 [Compound 177, 1-(4-(5-(4-chloro-3-fluorophenyl)-2H-tetrazol-2-yl)piperidin-1-yl)-2-(1-methyl-1H-1,2,4-triazol-5-yl)ethan-1-one]",170 nM
9,"Cc1noc(CC(=O)N2CCC(c3nc(C4CCC(C)(C)CC4)no3)CC2)n1 [Compound 30, 1-(4-(3-(4,4-dimethylcyclohexyl)-1,2,4-oxadiazol-5-yl)piperidin-1-yl)-2-(3-methyl-1,2,4-oxadiazol-5-yl)ethan-1-one]",1140 nM
10,"Cc1nonc1CC(=O)N1CCC(c2nc(C3CCC3)no2)CC1 [Compound 66, 1-(4-(3-cyclobutyl-1,2,4-oxadiazol-5-yl)piperidin-1-yl)-2-(4-methyl-1,2,5-oxadiazol-3-yl)ethan-1-one]",> 25000 nM
11,"Cc1nonc1CC(=O)N1CC2CC1CC2c1nc(-c2ccc(F)c(F)c2)no1 (stereo not shown) [Compound 198, 1-(5-(3-(3,4-difluorophenyl)-1,2,4-oxadiazol-5-yl)-2-azabicyclo[2.2.1]heptan-2-yl)-2-(4-methyl-1,2,5-oxadiazol-3-yl)ethan-1-one]",247 nM
12,"Cn1ncnc1CC(=O)N1CCC(n2nnc(-c3ccc(F)c(Cl)c3)n2)CC1 [Compound 182, 1-(4-(5-(3-chloro-4-fluorophenyl)-2H-tetrazol-2-yl)piperidin-1-yl)-2-(1-methyl-1H-1,2,4-triazol-5-yl)ethan-1-one]",370 nM
13,"Cc1noc(CC(=O)N2CCC(c3nc(C4CCC(C(F)(F)F)CC4)no3)CC2)n1 (stereo not shown) [Compound 37, 2-(3-methyl-1,2,4-oxadiazol-5-yl)-1-(4-(3-(4-(trifluoromethyl)cyclohexyl)-1,2,4-oxadiazol-5-yl)piperidin-1-yl)ethan-1-one]",7020 nM
14,"Cc1nonc1CC(=O)N1CCC(c2nc(C3CCCC4CC43)no2)CC1 (stereo not shown) [Compound 72, 1-(4-(3-(bicyclo[4.1.0]heptan-2-yl)-1,2,4-oxadiazol-5-yl)piperidin-1-yl)-2-(4-methyl-1,2,5-oxadiazol-3-yl)ethan-1-one]",> 10000 nM
15,"Cc1nonc1CC(=O)N1CCC(c2noc(C34CC(C)(C3)C4)n2)CC1 [Compound 90, 2-(4-methyl-1,2,5-oxadiazol-3-yl)-1-(4-(5-(3-methylbicyclo[1.1.1]pentan-1-yl)-1,2,4-oxadiazol-3-yl)piperidin-1-yl)ethan-1-one]",2050 nM
16,"Cn1ncnc1CC(=O)N1C[C@H]2C[C@@H](C1)[C@H]2c1nc(-c2ccc(Cl)cc2F)no1 [Compound 224, 1-((1R,5S,6s)-6-(3-(4-chloro-2-fluorophenyl)-1,2,4-oxadiazol-5-yl)-3-azabicyclo[3.1.1]heptan-3-yl)-2-(1-methyl-1H-1,2,4-triazol-5-yl)ethan-1-one]",> 10000 nM
17,"Cc1nnn(CC(=O)N2CCC(c3nc(-c4ccc(Cl)c(F)c4)no3)CC2)n1 [Compound 16, 1-(4-(3-(4-chloro-3-fluorophenyl)-1,2,4-oxadiazol-5-yl)piperidin-1-yl)-2-(5-methyl-2H-tetrazol-2-yl)ethan-1-one]",790 nM

row,Structure (SMILES),EC50
1,"Cc1noc(CC(=O)N2CCC(c3nc(-c4ccc(F)c(OC(F)(F)F)c4)no3)CC2)n1 [Compound 48, 1-(4-(3-(4-fluoro-3-(trifluoromethoxy)phenyl)-1,2,4-oxadiazol-5-yl)piperidin-1-yl)-2-(3-methyl-1,2,4-oxadiazol-5-yl)ethan-1-one]",730 nM
2,"Cc1noc(CC(=O)N2CCC(c3noc(-c4ccc(F)cc4)n3)CC2)n1 [Compound 53, 1-(4-(5-(4-fluorophenyl)-1,2,4-oxadiazol-3-yl)piperidin-1-yl)-2-(3-methyl-1,2,4-oxadiazol-5-yl)ethan-1-one]",> 10000 nM
3,"Cn1ncnc1CC(=O)N1CCC(c2nc(-c3ccc(Cl)cc3Cl)no2)CC1 [Compound 163, 1-(4-(3-(2,4-dichlorophenyl)-1,2,4-oxadiazol-5-yl)piperidin-1-yl)-2-(1-methyl-1H-1,2,4-triazol-5-yl)ethan-1-one]",200 nM
4,"Cc1nonc1CC(=O)N1CCC(c2nc(C3(C)COC3)no2)CC1 [Compound 85, 2-(4-methyl-1,2,5-oxadiazol-3-yl)-1-(4-(3-(3-methyloxetan-3-yl)-1,2,4-oxadiazol-5-yl)piperidin-1-yl)ethan-1-one]",> 10000 nM
5,"Cc1nonc1CC(=O)N1CCC(n2nnc(C3CC3)n2)CC1 [Compound 62, 1-(4-(5-cyclopropyl-2H-tetrazol-2-yl)piperidin-1-yl)-2-(4-methyl-1,2,5-oxadiazol-3-yl)ethan-1-one]",≥ 10000 nM
6,"Cc1noc(CC(=O)N2CCC(c3cc(-c4ccc(F)cc4)no3)CC2)n1 [Compound 50, 1-(4-(3-(4-fluorophenyl)isoxazol-5-yl)piperidin-1-yl)-2-(3-methyl-1,2,4-oxadiazol-5-yl)ethan-1-one]",> 10000 nM
7,"Cn1ncnc1CC(=O)N1CCC(c2nc([C@@H]3CC[C@@](C)(F)C3)no2)CC1 [Compound 158, 1-(4-(3-((1R,3R)-3-fluoro-3-methylcyclopentyl)-1,2,4-oxadiazol-5-yl)piperidin-1-yl)-2-(1-methyl-1H-1,2,4-triazol-5-yl)ethan-1-one]",> 10000 nM
8,"Cc1nonc1CC(=O)N1CCC2(CCC2c2nc(-c3ccc(F)cc3)no2)CC1 (stereo not shown) [Compound 241, 1-(1-(3-(4-fluorophenyl)-1,2,4-oxadiazol-5-yl)-7-azaspiro[3.5]nonan-7-yl)-2-(4-methyl-1,2,5-oxadiazol-3-yl)ethan-1-one]",> 10000 nM
9,"Cc1cccc(OC2CCN(C(=O)Cc3nonc3C)CC2)c1C [Compound 254, 1-(4-(2,3-dimethylphenoxy)piperidin-1-yl)-2-(4-methyl-1,2,5-oxadiazol-3-yl)ethan-1-one]",> 10000 nM
10,"Cn1ncnc1CC(=O)N1CCC(c2nc(-c3ccc(Cl)c(Cl)c3)no2)CC1 [Compound 164, 1-(4-(3-(3,4-dichlorophenyl)-1,2,4-oxadiazol-5-yl)piperidin-1-yl)-2-(1-methyl-1H-1,2,4-triazol-5-yl)ethan-1-one]",64.7 nM
11,"Cc1nonc1CC(=O)N1CCC(c2nc(-c3ccc(Cl)cc3Cl)no2)CC1 [Compound 94, 1-(4-(3-(2,4-dichlorophenyl)-1,2,4-oxadiazol-5-yl)piperidin-1-yl)-2-(4-methyl-1,2,5-oxadiazol-3-yl)ethan-1-one]",146 nM
12,"Cn1ncnc1CC(=O)N1C[C@H]2C[C@@H](C1)[C@@H]2c1nc(-c2ccc(Cl)cc2F)no1 [Compound 223, 1-((1R,5S,6r)-6-(3-(4-chloro-2-fluorophenyl)-1,2,4-oxadiazol-5-yl)-3-azabicyclo[3.1.1]heptan-3-yl)-2-(1-methyl-1H-1,2,4-triazol-5-yl)ethan-1-one]",290 nM
13,"Cn1ncnc1CC(=O)N1C[C@H]2C[C@@H](C1)[C@@H]2c1nc(-c2ccc(Cl)cc2)no1 [Compound 220, 1-((1R,5S,6r)-6-(3-(4-chlorophenyl)-1,2,4-oxadiazol-5-yl)-3-azabicyclo[3.1.1]heptan-3-yl)-2-(1-methyl-1H-1,2,4-triazol-5-yl)ethan-1-one]",140 nM
14,"Cc1nonc1CC(=O)N1CCC(n2nnc(-c3cccc(F)c3)n2)CC1 [Compound 145, 1-(4-(5-(3-fluorophenyl)-2H-tetrazol-2-yl)piperidin-1-yl)-2-(4-methyl-1,2,5-oxadiazol-3-yl)ethan-1-one]",963 nM
15,"Cc1noc(CC(=O)N2CCC(c3nc(-c4ccc(Cl)c(Cl)c4)no3)CC2)n1 [Compound 33, 1-(4-(3-(3,4-dichlorophenyl)-1,2,4-oxadiazol-5-yl)piperidin-1-yl)-2-(3-methyl-1,2,4-oxadiazol-5-yl)ethan-1-one]",140 nM
16,"Cc1nonc1CC(=O)N1CCC(O)(c2nc(C3CCCCC3)no2)CC1 [Compound 75, 1-(4-(3-cyclohexyl-1,2,4-oxadiazol-5-yl)-4-hydroxypiperidin-1-yl)-2-(4-methyl-1,2,5-oxadiazol-3-yl)ethan-1-one]",> 10000 nM
17,"Cc1nonc1CC(=O)N1CCC(c2noc(C3CC34CCC4)n2)CC1 (stereo not shown) [Compound 65, 2-(4-methyl-1,2,5-oxadiazol-3-yl)-1-(4-(5-(spiro[2.3]hexan-1-yl)-1,2,4-oxadiazol-3-yl)piperidin-1-yl)ethan-1-one]",15000 nM
